Data: article PMC10733463, “Berberine-microbiota interplay: orchestrating gut health through modulation of the gut microbiota and metabolic transformation into bioactive metabolites” (Frontiers in Pharmacology, 2023)

Key:
[1] = test system: Blautia spp., A. butyraticus, E. limosum; experiment: Growth of bacteria in presence of increasing concentrations of berberine; format: cell-based; details: 10 μg/mL berberine, M2GSC, anaerobic
Description: Samples were collected and processed as described before.
Supplementary Figure S1 – Growth of bacteria in presence of increasing concentrations of berberine in M2GSC medium (μg/mL) under anaerobic conditions. Strains were further tested for their ability to metabolize berberine (Figure 14). Strains were selected according to OTUs which relative abundance was positively correlated to berberrubine or thalifendine levels, including Blautia spp. and A. butyraticus. E. limosum was included as it was expected to demethylate berberine due to previous literature (Possemiers et al., 2008; Rich et al., 2022). Overnight cultures were 1:1000 diluted in M2GSC medium supplemented with 0, 1, 10 or 100 µg/mL berberine and grown for 24 hours under anaerobic conditions. Absorbance data at 600 nm are expressed as the mean ± standard deviation (n = 3). *: p < 0.05; ***: p < 0.001.

B. coccoides (DSM 935) [2] = details: Blautia coccoides, 10 µg/mL, pH 6
[3] = test system: Blautia hansenii (DSM 20583); details: DSM 20583, chicken, 10 µg/mL, pH 6
Method: (§1) Six strains were tested for their ability to convert berberine into berberine-demethylated metabolites. […] Strains were sub-cultured overnight in M2GSC medium pH 6. The next day, caecal content from a 3-week-old broiler chicken was sampled in anaerobic conditions and 1:1,000 diluted in M2GSC medium pH 6 containing 10 μg/mL berberine. Caecal mixtures were enriched with 1:100 diluted overnight cultures of single bacteria, or with M2GSC (control), and incubated in a 24-well plate, for 48 h. […] Samples were collected and processed as described before. Each bacterial strain was tested in triplicate at 37°C–40°C under anaerobic conditions.
(§2) The UPLC instrument consisted of an Acquity H-Class Quaternary Solvent Manager and an Acquity FTN Sample Manager (Waters, Berchem, Belgium). For chromatographic separation, an Acquity UPLC® HSS T3 column (1.8 µm, 100 mm × 2.1 mm i.d.) was used, protected by a precolumn of the same type (VanGuardTM, 5 mm × 2.1 mm i.d.), both from Waters. […] The column temperature was maintained at 25°C. The autosampler temperature was set at 10°C. The UPLC effluent was sent from 1.2 min to 9.5 min by use of a divert valve to a Xevo TQ-S® triple quadrupole mass spectrometer from Water, equipped with an ESI ion source operating in the positive ionization mode from. The UPLC-MS/MS analysis was run under control of MassLynx software (v4.1), which was used for subsequent data processing as well. For the injection of 1/5 diluted intestinal content samples (see section Preparation of intestinal content samples (ileum and caecum)), the divert valve was used in addition from 7.1 min to 8.4 min to deviate the high amount of berberine and associated IS berberine-d6 eluting in that time window from the UPLC column directly to the waste, rather than to the MS detector to avoid oversaturation of the instrument, influencing subsequent sample extract injections at well. Operating conditions for the ESI source used in the positive ionization mode were optimized by direct infusion of all individual components in combination with the mobile phase at 50% A/50% B delivered at a flow rate of 0.3 mL/min. The following tune parameters were used for detection of all components: capillary voltage, 3 kV, cone voltage, 10 V, source offset, 50 V, source temperature, 150°C, desolvation temperature, 500°C, desolvation gas flow, 800 L/h, cone gas flow, 150 L/h, collision gas flow, 0.2 mL/min, ion energy 1 and 2, 0.5, LM 1 and LM 2 resolution, 3, HM 1 and HM 2 resolution, 15. Components were detected in MS/MS mode using component specific MRM (Multiple Reaction Monitoring) transitions (Supplementary Table S1). Since a commercial standard of thalifendine was not available, MS/MS detection parameters and calibration of berberrubine were used for the detection and quantification of thalifendine, which is a reasonable approach, since both compounds are isomers. No commercial reference standards were available for phase II metabolites, therefore “calculated” MRM transitions were defined as follows: [M + -Gluc] > M+ for glucuronide forms and [M + -SO3] > M+ for sulfate forms, where the loss of glucuronic acid or sulfate corresponded to a mass shift of 176 Da or 80 Da respectively. Phase II metabolites were quantified relatively using the berberine calibration curve ([Wang et al., 2017a]; [Kwon et al., 2020]).

[4] = test system: Anaerostipes butyraticus (35–7); details: 35-7, chicken, 10 µg/mL, pH 6
Method: as §1, §2

[5] = test system: Eubacterium limosum (LMG 28910); details: LMG 28910, chicken, 10 µg/mL, pH 6
Method: as §1, §2

[6] = test system: Blautia hydrogenotrophica (DSM 10507); details: DSM 10507, chicken, 10 µg/mL, pH 6
Method: as §1, §2

B. coccoides (DSM 935) [7] = details: DSM 935, chicken, 10 µg/mL, pH 6
Method: as §1, §2

Blautia luti (DSM 14534) = details: DSM 14534, chicken, 10 µg/mL, pH 6
Method: as §1, §2

SMILES	Growth of the tested bacteria [1]	Log2(fold change) of metabolite response at 48 h, B. coccoides pure culture over berberine-medium (B. coccoides (DSM 935) [2])	Log2(fold change) of metabolite response at 48 h, culture with bacteria over control (berberine-medium + microbiota) [3]	Log2(fold change) of metabolite response at 48 h, culture with bacteria over control (berberine-medium + microbiota) [4]	Log2(fold change) of metabolite response at 48 h, culture with bacteria over control (berberine-medium + microbiota) [5]	Log2(fold change) of metabolite response at 48 h, culture with bacteria over control (berberine-medium + microbiota) [6]	Log2(fold change) of metabolite response at 48 h, culture with bacteria over control (berberine-medium + microbiota) (B. coccoides (DSM 935) [7])	Log2(fold change) of metabolite response at 48 h, culture with bacteria over control (berberine-medium + microbiota) (Blautia luti (DSM 14534))
COc1ccc2cc3[n+](cc2c1OC)CCc1cc2c(cc1-3)OCO2 [Berberine, Berberine chloride]	not significantly affected							
COc1ccc2cc3[n+](cc2c1O)CCc1cc2c(cc1-3)OCO2 [Berberrubine, berberrubine chloride]		1.96	-0.15	0.03	-0.40	-0.10	-1.64	-1.71
COc1cc2c(cc1O)CC[n+]1cc3c(OC)c(OC)ccc3cc1-2 [Jatrorrhizine, Jatrorrhizine chloride]		-2.05	-0.06	-0.05	0.11	0.03	-0.23	-0.36
